Laboratory results taken from US7235534B2, “Antisense strategy to modulate estrogen receptor response (ER α and/or ER β )” (Institut de Cardiologie de Montreal, priority 2001, dated 2007).

Assays:
ERβ [1] = test: Western blot of ERβ protein expression in PSMC; type: cell-based, porcine; conditions: oligomer 10^−6 mol/L, vs PBS-treated cells
Method: (§1) The efficiency and specificity of our antisense sequences to block the targeted protein expression were evaluated by Western blot analysis. Culture medium of confluent PAEC and PSMC (100-mm tissue culture plate) were rinsed with Dulbecco's modified eagle medium (DMEM; Life Technologies Inc., Carlsbad, Calif.) and trypsinized (trypsine-EDTA; Life Technologies). Cells were resuspended in DMEM containing 5% of fetal bovine serum and antibiotics (penicillin and streptomycin, Sigma, St-Louis, Mo.), and a cell count was obtained with a Coulter counter Z1 (Coulter Electronics, Luton, UK). Cells were seeded at 1×10^6 cells/100-mm tissue culture plate (Becton-Dickinson, Rutherford, N.J.), stimulated for 24 h in DMEM, 5% FBS, and antibiotics with or without antisense oligomers (10^−7, 5×10^−7, 10^−6 mol/L) and starved for 48 h in DMEM, 0.1% FBS, and antibiotics with or without antisense oligomers (10^−7, 5×10^−7, 10^−6 mol/L daily) for G0 synchronization. LipofectAnime (5 μg/ml, Life Technology Inc) was used as a transfection reagent only on PSMC. The cells were then grown to confluence for 16 h in DMEM, 5% FBS, and antibiotics with or without antisense oligomers (10^−7, 5×10^−7, 10^−6 mol/L) and starved for 7 h in DMEM, 0.1% FBS, and antibiotics with or without antisense oligomers (10^−7, 5×10^−7, 10^−6 mol/L) to induce an up-regulation of the ER expression. Culture medium was removed, and cells were rinsed twice with ice-cold DMEM. Total proteins were prepared by the addition of 500 μl of lysis buffer containing phenylmethylsulfonyl fluoride 1 mM (Sigma), leupeptin 10 μg/ml (Sigma), aprotinin 30 μg/mi (Sigma), and NaVO3 1 mM (Sigma). Plates were incubated at 4° C. for 30 min and scraped, and the protein concentration was determined with a Bio-Rad protein kit (Bio-Rad, Hercules, Calif.). Same protein quantity for each cell type were dissolved in Laemmli's buffer, boiled for 5 min in reducing conditions, separated by a 10% gradient SDS-PAGE (Protean II kit; Bio-Rad), and transblotted onto a 0.45-μm polyvinylidene difluoride membranes (Millipore Corp., Bedford, Mass.). […]

ERβ [2] = test: Western blot of ERβ protein expression in PAEC; type: cell-based, porcine; conditions: oligomer 10^−6 mol/L, vs PBS-treated cells
Method: as §1

ERα [3] = test: Western blot of ERα protein expression in PSMC; type: cell-based, porcine; conditions: oligomer 10^−6 mol/L, vs PBS-treated cells
Method: as §1

ERα [4] = test: Western blot of ERα protein expression in PAEC; type: cell-based, porcine; conditions: oligomer 10^−6 mol/L, vs PBS-treated cells
Method: as §1

[5] = tested on: Porcine aortic endothelial cells (PAEC); test: Chemotactic assay on PAEC (modified Boyden chamber); type: cell-based; conditions: 5 hrs
Method: (§2) Cell migration was evaluated using a modified Boyden 48-well microchamber kit (NeuroProbe, Cabin John, MD.). Near confluent EC and PSMC were rinsed with DMEM and trypsinized. Cells were resuspended in DMEM, 5% FBS, and antibiotics, and a cell count was obtained. […] ER antagonists were added 5 minutes before 17βE. Cells were harvested by trypsinization and resuspended in DMEM, 1% FBS, and antibiotics at a concentration of 5×10^5 cells/ml. […] The two sections of the system were separated by a porous polycarbonate filter (5-μm pores), pre-treated with a gelatine solution (1.5 mg/ml), and assembled. Five hours post incubation at 37° C., the nonmigrated cells were scraped with a plastic policeman, and the migrated cells were stained using a Quick-Diff solution. The filter was then mounted on a glass slide, and migrated cells were counted using a microscope adapted to a video camera to obtain a computer-digitized image.
(§3) Cell migration was evaluated using a modified Boyden 48-well microchamber kit (NeuroProbe, Cabin John, MD.). Near confluent PAEC and PSMC were rinsed with DMEM and trypsinized. Cells were resuspended in DMEM, 5% FBS, and antibiotics, and a cell count was obtained. PAEC and PSMC were seeded at 2.5×10^5 cells/well of 6-well tissue culture plates; stimulated for 24 hours in DMEM, 5% FBS, and antibiotics with or without antisense oligomers (10^−6 mol/L) and starved for 48 hours in DMEM, 0.1% FBS, and antibiotics with or without antisense oligomers (10^−6 mol/L daily) with or without 17βE (10^−8 mol/L). Cells were harvested by trypsinization and resuspended in DMEM, 1% FBS, and antibiotics at a concentration of 5×10^5 cells/mL. Fifty μL of this cell suspension with or without antisense oligomers (10^−6 mol/L) treated with or without 17βE (10^−8 mol/L) was added in the higher-chamber of the modified Boyden chamber apparatus, and the lower chamber was filled with DMEM, 1% FBS, antibiotics plus the desired concentration of agonist either 17βE (10^−8 mol/L) or platelet-derived growth factor-BB (PDGF-BB). The 2 sections of the system were separated by a porous polycarbonate filter (5-μm pores size), pretreated with a gelatine solution (1.5 mg/mL), and assembled. Five hours postincubation at 37° C., the non-migrated cells were scraped with a plastic policeman, and the migrated cells were stained using a Quick-Diff solution (Shandon Inc). The filter was then mounted on a glass slide, and migrated cells were counted using a microscope adapted to a video camera to obtain a computer-digitized image.

[6] = tested on: Porcine smooth muscle cells (PSMC); test: Chemotactic assay on PSMC (modified Boyden chamber); type: cell-based; conditions: 5 hours
Method: as §2, §3

Row | Molecule | inhibition of basal ERβ protein expression (ERβ [1]) | inhibition of basal ERβ protein expression (ERβ [2]) | inhibition of basal ERα protein expression (ERα [3]) | inhibition of basal ERα protein expression (ERα [4]) | further results
1 | AS2-ERβ: antisense oligonucleotide, phosphothioate backbone, targeting porcine ERβ mRNA: 5′-GCT AAA GGA GAG AGG TGT-3′ (antisense GCTAAAGGAGAGAGGTGT; DNA, all phosphorothioate, methylation of C not given here) | 92% | 97% | – | – | –
2 | AS1-ERβ: antisense oligonucleotide, phosphothioate backbone, targeting porcine ERβ mRNA: 5′-GTA GGA GAC AGG AGA GTT-3′ (antisense GTAGGAGACAGGAGAGTT; DNA, all phosphorothioate, methylation of C not given here) | 84% | 90% | – | – | –
3 | SCR-ERα: scrambled phosphothioate sequence, negative control: 5′-TGT AGC TCG GTT CTG TCG-3′ (TGTAGCTCGGTTCTGTCG; DNA, all phosphorothioate, methylation of C not given here) | – | – | no suppressing effect | no suppressing effect | –
4 | AS1-ERα: antisense oligonucleotide, phosphothioate backbone, targeting porcine ERα mRNA: 5′-CTC GTT GGC TTG GAT CTG-3′ (antisense CTCGTTGGCTTGGATCTG; DNA, all phosphorothioate, methylation of C not given here) | – | – | 88% | 94% | –
5 | SCR-ERβ: scrambled phosphothioate sequence, negative control: 5′-GAG TGG ACG TGA AGA AGT-3′ (GAGTGGACGTGAAGAAGT; DNA, all phosphorothioate, methylation of C not given here) | no suppressing effect | no suppressing effect | – | – | –
6 | bFGF: basic fibroblast growth factor, chemotactic agonist for PAEC | – | – | – | – | induction of PAEC migration as compared to DMEM 1% ([5]; bFGF 1 ng/ml): 46%; induction of PAEC migration as compared to DMEM 1% ([5]; bFGF 5 ng/ml): 124%; induction of PAEC migration as compared to DMEM 1% ([5]; bFGF 10 ng/ml): 114%
7 | AS2-ERα: antisense oligonucleotide, phosphothioate backbone, targeting porcine ERα mRNA: 5′-GAC GCT TTG GTG TGT AGG-3′ (antisense GACGCTTTGGTGTGTAGG; DNA, all phosphorothioate, methylation of C not given here) | – | – | 89% | 95% | –
8 | PDGF-BB: platelet derived growth factor-BB, agonist in the lower Boyden chamber and MAPK stimulus (protein, UniProt P01127 82-190, looked up) Platelet-derived growth …: SLGSLTIAEPAMIAECKTRTEVFEISRRLIDRTNANFLVWPPCVEVQRCSGCCNNRNVQCRPTQVQLRPVQVRKIEIVRKKPIFKKATVTLEDHLACKCETVAAARPVT | – | – | – | – | induction of PSMC migration as compared to DMEM 1% ([6]; PDGF-BB 1 ng/ml): 96%; induction of PSMC migration as compared to DMEM 1% ([6]; PDGF-BB 5 ng/ml): 137%; induction of PSMC migration as compared to DMEM 1% ([6]; PDGF-BB 10 ng/mL, Example 2): 199%; induction of PSMC migration as compared to DMEM 1% ([6]; PDGF-BB 10 ng/ml, Example 1): 202%
